System: epithelial surface of the backs of 18 month old ovarectomized and sham ovarectomized rats
Experiment: Parallel study of moisturiser and antibiotic on epithelial thickness
Format: in vivo, rat
Source text: In a parallel study a moisturiser (hydroderm), the topical antibiotic Chloromycetin (chloramphenicol), coconut oil, or coconut oil extracted into ethanol were applied to the epithelial surface of the backs of 18 month old ovarectomized and sham ovarectomized rats and compared to the epithelial surface of an adjacent untreated site. […] The results also indicate that the changes noted in the epithelium are not related to any antimicrobial capacity of the extracts as the changes are not able to be replicated by chloramphenicol.

Compound: O=C(N[C@H](CO)[C@H](O)c1ccc([N+](=O)[O-])cc1)C(Cl)Cl [Chloromycetin (chloramphenicol), chloramphenicol]
- thickness of the treated skin compared to the untreated adjacent skin: No significant difference

— patent US9649512B2, “One or more of Vigna marina, Cocos nucifera L. or Terminalia catappa L. extracts for treating wounds, skin disorders and hair loss” (CIMTECH PTY LIMITED, priority 2009, dated 2017)
